The numbers were not newly measured in PMC11682675 (Infection and Drug Resistance, 2024), which cites them from elsewhere.

Residues, ends and D or L forms follow the SMILES beside them.

For the data set the following is noted: reported by some studies.

As for `CC[C@H](C)CCCCC(=O)N[C@@H](CCN)C(=O)N[C@H](C(=O)N[C@@H](CCN)C(=O)N[C@H]1CCNC(=O)[C@H]([C@@H](C)O)NC(=O)[C@H](CCN)NC(=O)[C@H](CCN)NC(=O)[C@H](CC(C)C)NC(=O)[C@@H](Cc2ccccc2)NC(=O)[C@H](CCN)NC1=O)[C@@H](C)O` [PMB, Polymyxin B] (HELM PEPTIDE1{[CC[C@H](C)CCCCC(=O)[*:2]].[Dab].T.[Dab].[Dab].[Dab].[dF].L.[Dab].[Dab].T}$PEPTIDE1,PEPTIDE1,5:R3-11:R2$$$V2.0), the “CL of PMB in ECMO patients” value is 1.16 L/h and the “Vd of PMB in ECMO patients” value is 19.7 L.
